Here are results for three substances from article PMC11789008 (Proceedings of the National Academy of Sciences of the …, 2025).

Broadly, the Kd is the equilibrium constant for the complex coming apart. High values mean a looser complex, low ones a tighter complex. For orientation: stoichiometry N means the number of molecules, sites or subunits per partner or assembly.

Data set [1] addresses SARS-CoV-2 spike RBD, WT (Severe acute respiratory syndrome coronavirus 2, UniProt P0DTC2). The data set is described as follows: biochemical.
For data set [2] the following is noted: powder and solution form.
Data set [3] deals with SARS-CoV-2 spike ectodomain trimer with the BA.2-type RBD (SARS-CoV-2) (UniProt P0DTC2). The data set is described as follows: cryo-EM structure.
Data set [4] has as its target SARS-CoV-2 spike ectodomain trimer with the BA.5-type RBD (SARS-CoV-2) (UniProt P0DTC2). Nature of the data set: cryo-EM structure.

No end group written: not given here.

In data set [1], “DKLWILQKIYEIMVRLDEEGHGEASLMVSDLIYEFMKRD [CeSPIACE]” came in with a Kd of 0.246 ± 0.002 nM. Further, the stability entry in data set [2] is “stability has been confirmed in powder and solution form”.

“SARS-CoV-2 spike ectodomain trimer with the BA.2-type RBD (from UniProt P0DTC2 13-1208) (domain or fragment)” showed a stoichiometry N in data set [3] of 3.

Consider “SARS-CoV-2 spike ectodomain trimer with the BA.5-type RBD (from UniProt P0DTC2 13-1208) (domain or fragment)”, for which, in data set [4], the stoichiometry N is 3.
